Laboratory results: patent US8722663B2, “Di-substituted pyridine derivatives as anticancers” (Otsuka Pharmaceutical Co., Ltd., priority 2010, dated 2014)
Counter-ions that a name gives are not always drawn.

Legend:
[1] = test system: human hepatic cancer cell line (HuH-7); assay: Growth inhibition of HuH-7 cells, sulforhodamine B method; type: cell-based; settings: 5 days with test compound
Procedure: Growth inhibition of a human breast cancer cell line (MDA-MB-468) was determined by the sulforhodamine B method based on the method of Skehan P. et al. (J Natl Cancer Inst. 1990 Jul. 4; 82(13): 1107-12). In the study, MDA-MB-468 cells were seeded on DMEM medium containing 10% fetal bovine serum in a 96-well microplate. After 24-h incubation at 37° C. in the presence of 5% carbon dioxide, the test compound was added and the cells were incubated for another 5 days. After incubation, a trichloroacetic acid solution was added to yield the final concentration of 10% and the cells were left to stand at 4° C. for 1 hour to fix. Then, the cells were washed with water to remove the medium and trichloroacetic acid and dried in the air. The dried cells were stored at 4° C. until they were stained with sulforhodamine B. To each well, 1% acetic acid solution containing 0.4% sulforhodamine B was added and left to stand for 20 to 30 minutes at room temperature. After discarding the supernatant, each well was washed with 1% acetic acid solution, and 10 mM Tris([…]) solution was added while stirring to elute the dye taken into the cells. Then, the optical density was determined at the measurement wavelength of 492 nm and the reference wavelength of 690 nm, and the difference was calculated. The cell growth activity in each well was defined as the value determined by subtracting the OD in the control well not containing cells (the difference in absorbance between 492 nm and 690 nm) from that in the test well.
The 50% inhibitory concentration (IC50 (nM)) of the test compound was determined by comparing the cell growth activity in the well containing the test compound with that of the control not containing the test compound.
The growth inhibition on a human hepatic cancer cell line (HuH-7) was also determined by the above method.

IC50 ([1]; Homo sapiens, 120 h) [nM] | IC50 [1] [nM] | melting point [°C] | Structure (SMILES)
< 10 |  |  | C=Cc1ccc(CN2CCN(C(=O)/C=C/c3cc(C)c(Oc4ccc(OCc5ccccc5Cl)cn4)c(Cl)c3)CC2)cc1 [Example 391, (E)-3-[3-chloro-4-({5-[(2-chlorobenzyl)oxy]pyridin-2-yl}oxy)-5-methylphenyl]-1-[4-(4-ethenylbenzyl)-piperazin-1-yl]prop-2-en-1-one]
< 10 |  |  | COc1ccc(OCCc2ccc(CN3CCN(C(=O)/C=C/c4cc(C)c(Oc5ccc(OCc6ccc(C#N)cc6)cn5)c(C)c4)CCO3)cc2)cc1 [Example 402, 4-{[(6-{4-[(E)-3-(2-{4-[2-(4-Methoxyphenoxy)ethyl]benzyl}-1,2,5-oxadiazepan-5-yl)-3-oxoprop-1-en-1-yl]-2,6-dimethylphenoxy}pyridin-3-yl)oxy]methyl}benzonitrile]
< 10 |  |  | Cc1ccc(OC/C=C/c2ccc(CN3CCN(C(=O)/C=C/c4cc(C)c(Oc5ccc(OCc6ccc(F)cc6)cn5)c(C)c4)CC3)cc2C)cc1 [Example 407, (2E)-3-[4-({5-[(4-fluorobenzyl)oxy]pyridin-2-yl}oxy)-3,5-dimethylphenyl]-1-(4-{3-methyl-4-[(1E)-3-(4-methylphenoxy)prop-1-en-1-yl]benzyl}piperazin-1-yl)prop-2-en-1-one]
 | < 10 |  | COc1ccc(OCCc2ccc(CN3CCN(C(=O)/C=C/c4cc(C)c(Oc5ccc(OCc6ccc(C)c(F)c6)cn5)c(Cl)c4)CC3)cc2)cc1 [Example 428, (E)-3-[3-Chloro-4-({5-[3-fluoro-4-methylbenzyl)oxy]pyridin-2-yl}oxy)-5-methylphenyl]-1-(4-{4-[2-(4-methoxyphenoxy)ethyl]benzyl}piperazin-1-yl)prop-2-en-1-one hydrochloride]
< 10 |  | 214.8 to 215.3 | Cc1cc(/C=C/C(=O)N2CCN(Cc3ccc(CCOc4ccc(C(C)C)cc4)cc3)CC2)cc(Cl)c1Oc1ccc(OCc2ccc(Cl)nc2)cn1.Cl [Example 443, (E)-3-[3-Chloro-4-({5-[(6-chloropyridin-3-yl)methoxy]pyridin-2-yl}oxy)-5-methylphenyl]-1-[4-(4-{2-[4-(propan-2-yl)phenoxy]ethyl}benzyl)piperazin-1-yl]prop-2-en-1-one hydrochloride]
< 10 |  | 166.4 to 167.7 | Cc1cc(/C=C/C(=O)N2CCN(Cc3ccc(CCOc4ccc(C(C)C)cc4)cc3)CC2)cc(Cl)c1Oc1ccc(OCc2cccnc2)cn1.Cl [Example 445, (E)-3-(3-Chloro-5-methyl-4-{[5-(pyridin-3-ylmethoxy)pyridin-2-yl]oxy}phenyl)-1-[4-(4-{2-[4-(propan-2-yl)phenoxy]ethyl}benzyl)piperazin-1-yl]prop-2-en-1-one hydrochloride]
< 10 |  | 211.9 to 214 | Cc1cc(/C=C/C(=O)N2CCN(Cc3ccc(CCOc4ccc(F)cc4)cc3)CC2)cc(Cl)c1Oc1ccc(OCc2ccccc2Cl)cn1.Cl [Example 449, (E)-3-[3-Chloro-4-({5-[(2-chlorobenzyl)oxy]pyridin-2-yl}oxy)-5-methylphenyl]-1-(4-{4-[2-(4-fluorophenoxy)ethyl]benzyl}piperazin-1-yl)prop-2-en-1-one hydrochloride]
< 10 |  | 203.4 to 205.7 | COc1cc(/C=C/C(=O)N2CCN(Cc3ccc(CCOc4ccc(C)cc4)cc3)CC2)ccc1Oc1ccc(OCc2ccccc2Cl)cn1.Cl [Example 482, (E)-3-[4-({5-[(2-Chlorobenzyl)oxy]pyridin-2-yl}oxy)-3-methoxyphenyl]-1-(4-{4-[2-(4-methylphenoxy)ethyl]benzyl}piperazin-1-yl)prop-2-en-1-one hydrochloride]
< 10 |  |  | CC(C)c1ccc(OCCc2ccc(CN3CCN(C(=O)c4ccc5cc(Oc6ccc(OCc7cccc(F)c7F)cn6)ccc5c4)CC3)cc2)cc1 [Example 542, [6-({5-[(2,3-Difluorobenzyl)oxy]pyridin-2-yl}oxy)naphthalen-2-yl][4-(4-{2-[4-(propan-2-yl)phenoxy]ethyl}benzyl)piperazin-1-yl]methanone hydrochloride]
< 10 |  | 207 to 207.2 | Cc1ccc(OCCc2ccc(CN3CCN(C(=O)/C=C/c4cc(C)c(Oc5ccc(OCc6cncs6)cn5)c(C)c4)CC3)cc2)cc1.Cl [Example 596, (E)-3-(3,5-Dimethyl-4-{[5-(1,3-thiazol-5-ylmethoxy)pyridin-2-yl]oxy}phenyl)-1-(4-{4-[2-(4-methylphenoxy)ethyl]benzyl}piperazin-1-yl)prop-2-en-1-one hydrochloride]
< 10 |  | 216.2 to 219.2 | Cc1cc(/C=C/C(=O)N2CCN(Cc3ccc(COc4ccc(OC(C)C)cc4)cc3)CC2)cc(C)c1Oc1ccc(OCc2ccc(C#N)cc2)cn1.Cl [Example 647, 4-({[6-(2,6-Dimethyl-4-{(E)-3-oxo-3-[4-(4-{[4-(propan-2-yloxy)phenoxy]methyl}benzyl)-piperazin-1-yl]prop-1-en-1-yl}phenoxy)pyridin-3-yl]oxy}methyl)benzonitrile hydrochloride]
< 10 |  | 228 to 228.9 | COc1ccc(Oc2ccc3cc(CN4CCN(C(=O)/C=C/c5cc(C)c(Oc6ccc(OCc7ccccc7Cl)cn6)c(Cl)c5)CC4)ccc3n2)cc1.Cl [Example 675, (E)-3-[3-Chloro-4-({5-[(2-chlorobenzyl)oxy]pyridin-2-yl}oxy)-5-methylphenyl]-1-(4-{[2-(4-methoxyphenoxy)quinolin-6-yl]methyl}piperazin-1-yl)prop-2-en-1-one hydrochloride]
< 10 |  |  | COc1ccc(CCOc2ccc(CN3CCN(C(=O)/C=C/c4cc(C)c(Oc5ccc(OCc6ccc(C(F)(F)F)cc6)cn5)c(Cl)c4)CC3)cc2)cc1 [Example 688, (E)-3-{3-Chloro-5-methyl-4-[(5-{[4-(trifluoromethyl)benzyl]oxy}pyridin-2-yl)oxy]phenyl}-1-(4-{4-[2-(4-methoxyphenyl)ethoxy]benzyl}piperazin-1-yl)prop-2-en-1-one hydrochloride]
< 10 |  | 231.9 to 233.7 | Cc1cc(/C=C/C(=O)N2CCN(Cc3ccc(Oc4ccc(Cl)cc4)cc3)CC2)cc(C)c1Oc1ccc(OCc2ccc(C#N)cc2)cn1.Cl [Example 692, 4-{[(6-{4-[(E)-3-{4-[4-(4-Chlorophenoxy)benzyl]piperazin-1-yl}-3-oxoprop-1-en-1-yl]-2,6-dimethylphenoxy}pyridin-3-yl)oxy]methyl}benzonitrile hydrochloride]
< 10 |  | 236.1 to 236.6 | C/C(C(=O)N1CCN(Cc2ccc(CCOc3ccc(F)cc3)cc2)CC1)=C(/C)c1cc(C)c(Oc2ccc(OCc3ccc(C)cc3)cn2)c(Cl)c1.O=C(O)C(=O)O [Example 751, (E)-3-[3-Chloro-5-methyl-4-({5-[(4-methylbenzyl)oxy]pyridin-2-yl}oxy)phenyl]-1-(4-{4-[2-(4-fluorophenoxy)ethyl]benzyl}piperazin-1-yl)-2-methylbut-2-en-1-one ethanedioate]
< 10 |  | 201.5 to 202 | COc1cccc(OCCc2ccc(CN3CCN(C(=O)/C=C/c4ccc(Oc5ccc(OCc6ccc(F)cc6)cn5)c(Cl)c4)CC3)cc2)c1.Cl [Example 757, (E)-3-[3-chloro-4-({5-[(4-fluorobenzyl)oxy]pyridin-2-yl}oxy)phenyl]-1-(4-{4-[2-(3-methoxyphenoxy)ethyl]benzyl}piperazin-1-yl)prop-2-en-1-one hydrochloride]
